Results on seven compounds are retold here after US6589965B2, “Method of treating and preventing migraine headaches” (Pharmacia & Upjohn Company, priority 2001, dated 2003).

Data set [1] relates to migraine. The conditions noted are these: literature reports; cited from earlier work.
Data set [2] deals with migraine headache. The note with it: cited from earlier work; for efficacy in acute treatment of migraine (in words): literature reports.
Data set [3] has as its system quinpirole-induced yawning in rats. As to the kind of experiment: antagonism of quinpirole-induced yawning in rats. It is filed as in vivo, Male Sprague Dawley Rats. On the procedure:
Yawning is a behavior that has been linked to activation of dopaminergic neurotransmission.
Male Sprague Dawley Rats were used in this example. The animals were allowed 12 day acclimatization before testing and at the time of the study, their body weights ranged from 280-330 grams. The rats were housed in standard size steel cages with four animals per cage and were maintained on a 12 hour light/dark schedule with the lights being on from 6:00 a.m. to 6:00 p.m. All tests were performed between 8:00 a.m. and 2:00 p.m. Six animals were used per group.
The animals were then placed individually in a 6″×6″plexiglass observation cages and the number of yawns were counted for the subsequent 30 minutes. The results are shown in FIG. 1 with the data being expressed as the mean total number of yawns per 30 minutes. An analysis of variance was used for statistical calculations and probability levels of <0.05 was regarded as being statistically significant.

Data set [4] deals with D2 dopamine receptor (Homo sapiens, UniProt P14416). The note with it: cited from earlier work.
Sequence of D2 dopamine receptor (P14416 whole entry): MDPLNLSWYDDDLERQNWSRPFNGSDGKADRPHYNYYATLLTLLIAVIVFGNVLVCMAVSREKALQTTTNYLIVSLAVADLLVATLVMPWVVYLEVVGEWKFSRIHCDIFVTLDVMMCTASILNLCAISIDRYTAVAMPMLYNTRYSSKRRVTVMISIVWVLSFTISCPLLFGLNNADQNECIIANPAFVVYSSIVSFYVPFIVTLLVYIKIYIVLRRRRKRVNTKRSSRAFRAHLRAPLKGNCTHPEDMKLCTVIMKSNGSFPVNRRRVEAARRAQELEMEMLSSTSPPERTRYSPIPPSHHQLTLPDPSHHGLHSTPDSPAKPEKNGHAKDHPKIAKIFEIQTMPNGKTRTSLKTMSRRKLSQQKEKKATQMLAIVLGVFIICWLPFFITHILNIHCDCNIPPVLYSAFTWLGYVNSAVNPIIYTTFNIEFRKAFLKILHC
Where [5] appears, read: within 60 minutes of administration, randomized, double-blind clinical trial (Jones et al 1989).

Regarding `O=c1[nH]c2ccccc2n1CCCN1CCC(n2c(=O)[nH]c3cc(Cl)ccc32)CC1` [Domperidone], the “preventive / prophylactic effect on migraine (in words)” value in data set [1] is recorded as “prevent the occurrence of a migraine”.
Regarding `CN(C)CCCN1c2ccccc2Sc2ccc(Cl)cc21` [Chlorpromazine], the “efficacy in acute treatment of migraine (in words)” value (“efficacy in acute treatment” below) in data set [2] is “highly effective”. In addition, in data set [2] (migraine patients in an emergency department (Lane et al 1985)), the common side effect result was “moderate drowsiness”.
Take `CCCN1CCC[C@@H](c2cccc(S(C)(=O)=O)c2)C1` [Cmpd 1, S-(−)-3-[3-(methylsulfonyl)phenyl]-1-propyl-piperidine]: in data set [3] (10 or 30 mg/kg injected 15 minutes before quinpirole 0.1 mg/kg), the “antagonism of the yawning behavior induced by quinpirole” value was “dose-dependent and complete antagonism”. Moreover, the “induction of yawning behavior by compound given alone” value in data set [3] (given alone at a dose of 30 mg/kg) was “failed to induce yawning behavior”.
In the case of `Fc1ccc(C(c2ccc(F)cc2)N2CCN(C/C=C/c3ccccc3)CC2)cc1` [Flunarizine], the “affinity for the D2 dopamine receptor (in words)” value in data set [4] is “moderate degree of affinity”. Moreover, the “efficacy in acute treatment” value in data set [2] was “high degree of relief”.
`CN1CCN(CCCN2c3ccccc3Sc3ccc(Cl)cc32)CC1` [Prochlorperazine]: in data set [2], the “efficacy in acute treatment” value was “high degree of efficacy”. Further, in data set [2] (setting [5]), the “additional patients with partial relief” value is 14% and the “patients with complete relief” value is recorded as 74%.
As for `O=C(CCCN1CCC(O)(c2ccc(Cl)cc2)CC1)c1ccc(F)cc1` [haloperidol], in data set [2] (Fisher, J Emerg Med 1995), the “patients with headache completely or substantially relieved” value was “six of six” and the “time to headache relief after administration” value is 25 to 65 min.
In the case of `CCN(CC)CCNC(=O)c1cc(Cl)c(N)cc1OC` [Metoclopramide], the “preventive / prophylactic effect on migraine (in words)” value in data set [1] was “beneficial effect”. In addition, the “affinity for the D2 dopamine receptor (in words)” value in data set [4] is on record as “relatively low affinity”.
